This note sets out measurements from patent publication US8946203B2, “Benzodioxane inhibitors of leukotriene production” (Boehringer Ingelheim International GmbH, priority 2012, dated 2015).

Each structure is given as a SMILES string. pIC50: −log10 of the molar value.

Assay [1] has as its target T1, human LTA4 hydrolase (Homo sapiens, UniProt P09960).
T1 sequence (P09960 1-611): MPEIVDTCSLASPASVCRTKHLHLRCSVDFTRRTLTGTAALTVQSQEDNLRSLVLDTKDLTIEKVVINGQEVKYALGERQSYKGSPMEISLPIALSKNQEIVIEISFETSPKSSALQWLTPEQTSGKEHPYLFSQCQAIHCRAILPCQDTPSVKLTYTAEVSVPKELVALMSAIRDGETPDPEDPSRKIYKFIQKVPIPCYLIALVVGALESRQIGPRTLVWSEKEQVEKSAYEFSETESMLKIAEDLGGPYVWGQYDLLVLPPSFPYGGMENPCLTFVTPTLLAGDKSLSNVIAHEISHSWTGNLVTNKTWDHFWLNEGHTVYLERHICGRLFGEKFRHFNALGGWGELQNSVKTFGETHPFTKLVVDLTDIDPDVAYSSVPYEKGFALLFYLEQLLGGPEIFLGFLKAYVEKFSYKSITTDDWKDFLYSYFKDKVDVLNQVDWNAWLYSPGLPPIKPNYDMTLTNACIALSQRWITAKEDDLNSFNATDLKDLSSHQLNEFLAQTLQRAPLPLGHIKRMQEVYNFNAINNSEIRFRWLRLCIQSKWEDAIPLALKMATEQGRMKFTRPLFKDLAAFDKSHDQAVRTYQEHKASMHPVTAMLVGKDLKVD
The assay is described as follows: LTA4H Enzyme assay (cleavage of Arg-AMC, fluorescence). To be noted: LTA4H Enzyme 1 nM, Arg-AMC substrate 50 μM, room temperature 1 h, fluorescence; read-out: IC50 values of LTA4H Enzyme assay. The format is biochemical. The essentials:
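Aminomethylcoumarin release measured fluorimetrically (380/460 nm) after 1 h at room temperature. Reaction: 1 nM final enzyme, 50 μM final Arg-AMC and compound in Tris-HCl pH 7.5 with 100 mM KCl and 0.5% BSA.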

For assay [2], the system named is synthesis of LTB4 in human whole blood. Briefly: human whole blood (HWB) assay, LTB4 production inhibition after calcimycin stimulation. Type of assay: cell-based. Conditions: heparinized human whole blood, calcimycin 20 μM, plasma LTB4 by HTRF. As for the experimental part: The compounds of the invention are additionally tested in a human whole blood (HWB) assay to determine their ability to inhibit the synthesis of LTB4 in a cellular system. Compounds are combined with heparinized human whole blood and incubated for 15 minutes at 37° C. Calcimycin (20 μM final, prepared in phosphate-buffered saline, pH 7.4) is then added and the mixture is incubated for another 30 minutes at 37° C. The samples are centrifuged for 5 min at low speed (1500×g) and the plasma layer is removed. Plasma LTB4 concentrations are then measured using an antibody-based homogenous time-resolved fluorescence method (CisBio, Bedford, Mass.). In general, the preferred potency range (IC50) of compounds in the HWB assay is between 10 nM to 10 μM, the more preferred potency range is 10 nM to 1 μM, and the most preferred potency range is 10 nM to 100 nM.
On the technique in general: In TR-FRET formats the signal depends on donor and acceptor labels being close together.

The term pIC50 denotes −log10 of the IC50, conventionally taken in molar units. For the compound `O=C(O)CCCC1CCN(Cc2ccc(C3COc4ccccc4O3)cc2)CC1` (racemic) [Example 26, 4-{1-[4-(2,3-dihydro-1,4-benzodioxin-2-yl)benzyl]piperidin-4-yl}butanoic acid], the pIC50 was 9.37 in assay [1] and 6.51 in assay [2].

With `O=C(C1CCN(Cc2ccc(C3COc4ccccc4O3)cc2)CC1)N1CCOCC1` (racemic) [Example 37, {1-[4-(2,3-dihydro-1,4-benzodioxin-2-yl)benzyl]piperidin-4-yl}(morpholin-4-yl)methanone], the negative-log IC50 (pIC50) was 8.98 in assay [1] and 6.49 in assay [2].

Regarding `O=C(NCCO)C1CCN(Cc2ccc(C3COc4ccccc4O3)cc2)CC1` (racemic) [Example 52, 1-[4-(2,3-dihydro-1,4-benzodioxin-2-yl)benzyl]-N-(2-hydroxyethyl)piperidine-4-carboxamide], the pIC50 in assay [1] is 9.12; in assay [2], 6.84.

Take `NC(=O)NC1CCN(Cc2ccc(C3COc4ccccc4O3)cc2)CC1` (racemic) [Example 53, 1-{1-[4-(2,3-dihydro-1,4-benzodioxin-2-yl)benzyl]piperidin-4-yl}urea]: the pIC50 was 9.38 in assay [1] and 6.81 in assay [2].

In the case of `CC(=O)N1CCC(N(C)Cc2ccc([C@H]3COc4ccccc4O3)cc2)CC1` [Example 14, 1-{4-[{4-[(2S)-2,3-dihydro-1,4-benzodioxin-2-yl]benzyl}(methyl)amino]piperidin-1-yl}ethanone], the pIC50 in assay [1] is 9.57; in assay [2] it was 6.81.

Take `O=C(O)C1CCN(Cc2ccc([C@H]3COc4ccccc4O3)cc2)C1` (stereo partly drawn) [Example 61, 1-{4-[(2S)-2,3-dihydro-1,4-benzodioxin-2-yl]benzyl}pyrrolidine-3-carboxylic acid]: the negative-log IC50 (pIC50) was 9.22 in assay [1] and 6.60 in assay [2].

Turning to `CC(=O)N1CC[C@@H](NCc2ccc([C@H]3COc4ccccc4O3)cc2)C1` [Example 64, 1-[(3R)-3-({4-[(2S)-2,3-dihydro-1,4-benzodioxin-2-yl]benzyl}amino)pyrrolidin-1-yl]ethanone], the pIC50 in assay [1] is 9.08; in assay [2], 6.80.

With `CN(Cc1ccc([C@H]2COc3ccccc3O2)cc1)C1CCCCC1` [Example 67, N-{4-[(2S)-2,3-dihydro-1,4-benzodioxin-2-yl]benzyl}-N-methylcyclohexanamine], the negative logarithm of the IC50 (pIC50) is 9.21 in assay [1] and 6.46 in assay [2].

Consider `CC1CCCCN1Cc1ccc([C@H]2COc3ccccc3O2)cc1` (stereo partly drawn) [Example 68, 1-{4-[(2S)-2,3-dihydro-1,4-benzodioxin-2-yl]benzyl}-2-methylpiperidine], for which the pIC50 is 10.00 in assay [1] and 7.09 in assay [2].

`OCC1CCCN(Cc2ccc([C@H]3COc4ccccc4O3)cc2)C1` (stereo partly drawn) [Example 69, (1-{4-[(2S)-2,3-dihydro-1,4-benzodioxin-2-yl]benzyl}piperidin-3-yl)methanol]: the negative logarithm of the IC50 (pIC50) was 9.22 in assay [1] and 6.78 in assay [2].

Turning to `CN(Cc1ccc([C@H]2COc3ccccc3O2)cc1)C(C)(C)C` [Example 81, N-{4-[(2S)-2,3-dihydro-1,4-benzodioxin-2-yl]benzyl}-N,2-dimethylpropan-2-amine], the pIC50 in assay [1] was 9.51; in assay [2], 7.09.

Consider `CC(=O)N(C)C1CCN(Cc2ccc([C@H]3COc4ccccc4O3)cc2)C1` (stereo partly drawn) [Example 83, N-(1-{4-[(2S)-2,3-dihydro-1,4-benzodioxin-2-yl]benzyl}pyrrolidin-3-yl)-N-methylacetamide], for which the pIC50 in assay [1] was 9.89; in assay [2], 7.48.

Regarding `OC[C@H]1CCCC[C@H]1NCc1ccc([C@H]2COc3ccccc3O2)cc1` [Example 87, [(1S,2R)-2-({4-[(2S)-2,3-dihydro-1,4-benzodioxin-2-yl]benzyl}amino)cyclohexyl]methanol], the results for the pIC50 in assay [1] and in assay [2] were 9.16 and 6.57, respectively.

Take `O=C1CCCN1CC1CCN(Cc2ccc([C@H]3COc4ccccc4O3)cc2)CC1` [Example 99, 1-[(1-{4-[(2S)-2,3-dihydro-1,4-benzodioxin-2-yl]benzyl}piperidin-4-yl)methyl]pyrrolidin-2-one]: the pIC50 was 9.43 in assay [1] and 7.02 in assay [2].

In the case of `CCN(Cc1ccc([C@H]2COc3ccccc3O2)cc1)C1CCCC1` [Example 109, N-{4-[(2S)-2,3-dihydro-1,4-benzodioxin-2-yl]benzyl}-N-ethylcyclopentanamine], the negative logarithm of the IC50 (pIC50) in assay [1] was 9.77; in assay [2] it was 7.12.

As for `O=C1NCCCC12CCN(Cc1ccc([C@H]3COc4ccccc4O3)cc1)CC2` [Example 116, 9-{4-[(2S)-2,3-dihydro-1,4-benzodioxin-2-yl]benzyl}-2,9-diazaspiro[5.5]undecan-1-one], the pIC50 in assay [1] was 9.09; in assay [2], 6.51.

Take `CC(=O)N1CCCC12CCN(Cc1ccc([C@H]3COc4ccccc4O3)cc1)C2` (stereo partly drawn) [Example 118, 1-(7-{4-[(2S)-2,3-dihydro-1,4-benzodioxin-2-yl]benzyl}-1,7-diazaspiro[4.4]non-1-yl)ethanone]: the figures for the pIC50 in assay [1] and in assay [2] were 9.35 and 6.59, respectively.

Regarding `CN1CCC2(CCN(Cc3ccc([C@H]4COc5ccccc5O4)cc3)CC2)C1=O` [Example 121, 8-{4-[(2S)-2,3-dihydro-1,4-benzodioxin-2-yl]benzyl}-2-methyl-2,8-diazaspiro[4.5]decan-1-one], the figures for the negative-log IC50 (pIC50) in assay [1] and in assay [2] were 9.43 and 6.80, respectively.

Regarding `NC(=O)CN1CCCC12CCN(Cc1ccc([C@H]3COc4ccccc4O3)cc1)C2` (stereo partly drawn) [Example 123, 2-(7-{4-[(2S)-2,3-dihydro-1,4-benzodioxin-2-yl]benzyl}-1,7-diazaspiro[4.4]non-1-yl)acetamide], the pIC50 was 9.14 in assay [1] and 6.51 in assay [2].

Turning to `O=C1NCCC12CCN(Cc1ccc([C@H]3COc4cccnc4O3)cc1)CC2` [Example 125, 8-[(S)-4-(2,3-Dihydro-[1,4]dioxino[2,3-b]pyridin-3-yl)-benzyl]-2,8-diaza-spiro[4.5]decan-1-one], the pIC50 in assay [1] was 9.80; in assay [2] it was 7.41.

As to `c1cnc2c(c1)OC[C@H](c1ccc(CN3CCCC3)cc1)O2` [Example 126, (3S)-3-[4-(pyrrolidin-1-ylmethyl)phenyl]-2,3-dihydro[1,4]dioxino[2,3-b]pyridine], the pIC50 in assay [1] is 9.74; in assay [2], 7.49.

Consider `O=C(O)CCC1CCN(Cc2ccc([C@H]3COc4ccccc4O3)cc2)CC1` [Example 134, 3-(1-{4-[(2S)-2,3-dihydro-1,4-benzodioxin-2-yl]benzyl}piperidin-4-yl)propionic acid], for which the pIC50 in assay [1] is 9.33; in assay [2] it was 7.02.

In the case of `CC1CCN(Cc2ccc([C@H]3COc4cccnc4O3)cc2)CC1` [Example 137, (3S)-3-{4-[(4-methylpiperidin-1-yl)methyl]phenyl}-2,3-dihydro[1,4]dioxino[2,3-b]pyridine], the values for the pIC50 in assay [1] and in assay [2] were 9.59 and 7.55, respectively.

Turning to `CN(CCc1ccccn1)Cc1ccc([C@H]2COc3cccnc3O2)cc1` [Example 138, N-{4-[(3S)-2,3-dihydro[1,4]dioxino[2,3-b]pyridin-3-yl]benzyl}-N-methyl-2-(pyridin-2-yl)ethanamine], the values for the pIC50 in assay [1] and in assay [2] were 9.74 and 7.12, respectively.

For the compound `c1cnc2c(c1)OC[C@H](c1ccc(CN3CCCCCC3)cc1)O2` [Example 139, (3S)-3-[4-(azepan-1-ylmethyl)phenyl]-2,3-dihydro[1,4]dioxino[2,3-b]pyridine], the pIC50 was 10.00 in assay [1] and 7.89 in assay [2].
